Tested on: 292921-168-R tumor spheroid viability
Assay: Anticancer human tumor 292921-168-R patient-derived pancreatic carcinoma cell line growth inhibition
Details: spheroids with HUVEC and MSC; for IC50: curve of first compound; for viability, T/C: stronger effect = lower value
How it was run: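 Single agents and combinations were tested on spheroids built from tumor cells plus HUVEC and hMSC, at half-log dilutions starting at or near clinical Cmax, else 10 microM; final DMSO 0.25% (v/v).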
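Note: spheroids exposed to compounds for 7 days.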

## COc1cc(C)[nH]c(=O)c1CN1CCc2c(Cl)cc(C(OC)C3COC3)c(Cl)c2C1=O (stereo not given) + Cn1nnc2c(C(N)=O)ncn2c1=O
Second compound 1 µM
  IC50: > 10000 nM
Second compound 3.16 µM
  IC50: > 10000 nM
Second compound 10 µM
  IC50: > 10000 nM
Second compound 31.6 µM
  IC50: > 10000 nM
Second compound 100 µM
  IC50: > 10000 nM
Second compound 1 µM, first compound 0.0316 µM
  viability, T/C: 94.7%
Second compound 1 µM, first compound 0.1 µM
  viability, T/C: 94.7%
Second compound 1 µM, first compound 0.316 µM
  viability, T/C: 95.4%
Second compound 1 µM, first compound 1 µM
  viability, T/C: 88.7%
Second compound 1 µM, first compound 3.16 µM
  viability, T/C: 81.6%
Second compound 1 µM, first compound 10 µM
  viability, T/C: 72.6%
Second compound 3.16 µM, first compound 0.0316 µM
  viability, T/C: 102%
Second compound 3.16 µM, first compound 0.1 µM
  viability, T/C: 100%
Second compound 3.16 µM, first compound 0.316 µM
  viability, T/C: 93.6%
Second compound 3.16 µM, first compound 1 µM
  viability, T/C: 79.8%
Second compound 3.16 µM, first compound 3.16 µM
  viability, T/C: 88.2%
Second compound 3.16 µM, first compound 10 µM
  viability, T/C: 84.5%
Second compound 10 µM, first compound 0.0316 µM
  viability, T/C: 93.4%
Second compound 10 µM, first compound 0.1 µM
  viability, T/C: 87.4%
Second compound 10 µM, first compound 0.316 µM
  viability, T/C: 98%
Second compound 10 µM, first compound 1 µM
  viability, T/C: 80.2%
Second compound 10 µM, first compound 3.16 µM
  viability, T/C: 84.4%
Second compound 10 µM, first compound 10 µM
  viability, T/C: 75.2%
Second compound 31.6 µM, first compound 0.0316 µM
  viability, T/C: 91.5%
Second compound 31.6 µM, first compound 0.1 µM
  viability, T/C: 94.2%
Second compound 31.6 µM, first compound 0.316 µM
  viability, T/C: 89.4%
Second compound 31.6 µM, first compound 1 µM
  viability, T/C: 85.1%
Second compound 31.6 µM, first compound 3.16 µM
  viability, T/C: 78.5%
Second compound 31.6 µM, first compound 10 µM
  viability, T/C: 80.2%
Second compound 100 µM, first compound 0.0316 µM
  viability, T/C: 89.5%
Second compound 100 µM, first compound 0.1 µM
  viability, T/C: 91.1%
Second compound 100 µM, first compound 0.316 µM
  viability, T/C: 88.1%
Second compound 100 µM, first compound 1 µM
  viability, T/C: 78%
Second compound 100 µM, first compound 3.16 µM
  viability, T/C: 75.9%
Second compound 100 µM, first compound 10 µM
  viability, T/C: 82%

## CNCc1ccc(-c2cc(-c3nc(-c4ccc(S(=O)(=O)C(C)C)cc4)cnc3N)on2)cc1 + CC[C@@]1(O)C(=O)OCc2c1cc1n(c2=O)Cc2cc3c(CN(C)C)c(O)ccc3nc2-1
Second compound 0.003 µM
  IC50: 107 nM
Second compound 0.00949 µM
  IC50: 69.2 nM
Second compound 0.03 µM
  IC50: < 9.49 nM
Second compound 0.0949 µM
  IC50: < 9.49 nM
Second compound 0.3 µM
  IC50: < 9.49 nM
Second compound 0.003 µM, first compound 0.00949 µM
  viability, T/C: 92.2%
Second compound 0.003 µM, first compound 0.03 µM
  viability, T/C: 77.3%
Second compound 0.003 µM, first compound 0.0949 µM
  viability, T/C: 55.9%
Second compound 0.003 µM, first compound 0.3 µM
  viability, T/C: 21.1%
Second compound 0.003 µM, first compound 0.949 µM
  viability, T/C: 16.6%
Second compound 0.003 µM, first compound 3 µM
  viability, T/C: 8.99%
Second compound 0.00949 µM, first compound 0.00949 µM
  viability, T/C: 73.1%
Second compound 0.00949 µM, first compound 0.03 µM
  viability, T/C: 74.7%
Second compound 0.00949 µM, first compound 0.0949 µM
  viability, T/C: 41%
Second compound 0.00949 µM, first compound 0.3 µM
  viability, T/C: 16.7%
Second compound 0.00949 µM, first compound 0.949 µM
  viability, T/C: 15.6%
Second compound 0.00949 µM, first compound 3 µM
  viability, T/C: 10.3%
Second compound 0.03 µM, first compound 0.00949 µM
  viability, T/C: 35.9%
Second compound 0.03 µM, first compound 0.03 µM
  viability, T/C: 32.9%
Second compound 0.03 µM, first compound 0.0949 µM
  viability, T/C: 27%
Second compound 0.03 µM, first compound 0.3 µM
  viability, T/C: 14.7%
Second compound 0.03 µM, first compound 0.949 µM
  viability, T/C: 13.4%
Second compound 0.03 µM, first compound 3 µM
  viability, T/C: 9.47%
Second compound 0.0949 µM, first compound 0.00949 µM
  viability, T/C: 12.6%
Second compound 0.0949 µM, first compound 0.03 µM
  viability, T/C: 15%
Second compound 0.0949 µM, first compound 0.0949 µM
  viability, T/C: 11.2%
Second compound 0.0949 µM, first compound 0.3 µM
  viability, T/C: 10.1%
Second compound 0.0949 µM, first compound 0.949 µM
  viability, T/C: 10.3%
Second compound 0.0949 µM, first compound 3 µM
  viability, T/C: 2.13%
Second compound 0.3 µM, first compound 0.00949 µM
  viability, T/C: 4.63%
Second compound 0.3 µM, first compound 0.03 µM
  viability, T/C: 4.83%
Second compound 0.3 µM, first compound 0.0949 µM
  viability, T/C: 4.59%
Second compound 0.3 µM, first compound 0.3 µM
  viability, T/C: 5.23%
Second compound 0.3 µM, first compound 0.949 µM
  viability, T/C: 6.72%
Second compound 0.3 µM, first compound 3 µM
  viability, T/C: 0.97%
